# Measured values: patent US10315990B2, “Isothiocyanate compounds and isothiocyanate XPO1 protein inhibitor drugs thereof” (DRIVINGFORCE THERAPEUTICS Co., Ltd., priority 2015, dated 2019)
# Experiments:
# IL-6 = assay: Serum IL-6 level of IBD animal model (ELISA); assay type: in vivo, SD rats; settings: 80 mg/kg, three days after making the TNBS model
# Text: Inflammatory bowel disease is an autoimmune disease. […] The therapeutic effect of the representative compound for the immune system disease or inflammation can be assessed by detecting change in levels of some important cytokines such as TNF-α and IL-6 at downstream of the signal path.
# 786-O = assay: Inhibitory activity for other high metastasis type cancer cell line (MTT or CCK-8); assay type: cell-based; settings: Homo sapiens, 786-0; 786-O, 72 hours; read-out: IC50
# NCI-H1650 = assay: cells; assay type: cell-based; settings: Homo sapiens; NCI-H1650, 72 hours; read-out: IC50
# NCI-H1975 = assay: cells; assay type: cell-based; settings: Homo sapiens; NCI-H1975, 72 hours; read-out: IC50
# CaSki = assay: Inhibitory activity for other high metastasis type cancer cell line (MTT or CCK-8); assay type: cell-based; settings: Homo sapiens, Ca-Ski; CaSki, 72 hours; read-out: IC50
# XPO1 protein = molecular target: T1, XPO1 protein (Homo sapiens, UniProt O14980); assay: Inhibitory activity for XPO1 protein (NES-GFP nuclear export, laser confocal microscope); assay type: cell-based; settings: NES-GFP nuclear export, cells treated for 2 hours
# T1 construct: Sixteen hours later, NES-GFP plasmid was transfected with liposome; endogenous in cells
# T1 sequence (O14980 whole entry, species assumed): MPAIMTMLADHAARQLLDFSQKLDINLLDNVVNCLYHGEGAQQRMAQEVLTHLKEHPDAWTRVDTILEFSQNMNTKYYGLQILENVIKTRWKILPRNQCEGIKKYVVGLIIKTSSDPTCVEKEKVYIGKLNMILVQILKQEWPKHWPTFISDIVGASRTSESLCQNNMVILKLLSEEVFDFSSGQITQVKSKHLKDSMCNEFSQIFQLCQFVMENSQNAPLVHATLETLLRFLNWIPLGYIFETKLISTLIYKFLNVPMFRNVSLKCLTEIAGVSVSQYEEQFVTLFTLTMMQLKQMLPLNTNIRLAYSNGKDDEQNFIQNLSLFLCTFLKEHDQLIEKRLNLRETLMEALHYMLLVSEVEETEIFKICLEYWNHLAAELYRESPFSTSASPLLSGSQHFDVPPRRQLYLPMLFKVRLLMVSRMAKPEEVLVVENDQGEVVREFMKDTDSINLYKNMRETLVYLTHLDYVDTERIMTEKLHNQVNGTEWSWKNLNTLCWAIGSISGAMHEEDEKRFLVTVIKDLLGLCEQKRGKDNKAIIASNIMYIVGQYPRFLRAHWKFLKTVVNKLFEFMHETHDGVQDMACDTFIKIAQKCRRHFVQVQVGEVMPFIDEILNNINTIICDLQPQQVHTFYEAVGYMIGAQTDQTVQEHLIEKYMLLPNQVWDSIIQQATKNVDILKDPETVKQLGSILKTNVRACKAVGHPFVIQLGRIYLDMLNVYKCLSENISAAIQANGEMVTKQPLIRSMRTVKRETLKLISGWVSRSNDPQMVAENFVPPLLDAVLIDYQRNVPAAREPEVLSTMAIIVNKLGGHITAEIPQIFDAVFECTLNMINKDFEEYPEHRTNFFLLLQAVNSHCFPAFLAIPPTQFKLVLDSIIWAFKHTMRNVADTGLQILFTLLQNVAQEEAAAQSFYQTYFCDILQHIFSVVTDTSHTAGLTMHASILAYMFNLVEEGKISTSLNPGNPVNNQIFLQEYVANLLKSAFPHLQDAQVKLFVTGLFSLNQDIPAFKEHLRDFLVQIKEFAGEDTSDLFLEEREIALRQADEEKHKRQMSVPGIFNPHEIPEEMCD
smiles,measurement,setting,value
"C[S+]([O-])CCCCN=C=S (centres unmarked) [SFN, sulforaphane, reference compound]","Serum IL-6 level, Animal-1",IL-6; Animal-1,2.5 ng/mL
same,"Serum IL-6 level, Animal-2",IL-6; Animal-2,2.4 ng/mL
same,"Serum IL-6 level, Animal-3",IL-6; Animal-3,2.3 ng/mL
same,IC50,786-O,10.2 µM
same,IC50,NCI-H1650,18.1 µM
same,IC50,NCI-H1975,20.3 µM
same,IC50,CaSki,11 µM
same,Activity (μM): inhibitory activity for XPO1 protein (full inhibitory concentration),XPO1 protein,35 µM
